Source: patent EP4038059B1, “SUBSTITUTED CARBAZOLE COMPOUNDS” (Bristol-Myers Squibb Company, priority 2019, dated 2021)

Tests used:
Assay type in all cases: cell-based
human TLR9 = biological target: T1, human TLR9 (Homo sapiens, UniProt Q9NR96); assay: TLR9 inhibition reporter assay (HEK-Blue SEAP); details: HEK-Blue cells overexpressing human TLR9, stimulated with ODN2006 5 nM, 22 h incubation
T1 construct: host or cells: HEK-Blue cells
T1 sequence (Q9NR96 26-1032): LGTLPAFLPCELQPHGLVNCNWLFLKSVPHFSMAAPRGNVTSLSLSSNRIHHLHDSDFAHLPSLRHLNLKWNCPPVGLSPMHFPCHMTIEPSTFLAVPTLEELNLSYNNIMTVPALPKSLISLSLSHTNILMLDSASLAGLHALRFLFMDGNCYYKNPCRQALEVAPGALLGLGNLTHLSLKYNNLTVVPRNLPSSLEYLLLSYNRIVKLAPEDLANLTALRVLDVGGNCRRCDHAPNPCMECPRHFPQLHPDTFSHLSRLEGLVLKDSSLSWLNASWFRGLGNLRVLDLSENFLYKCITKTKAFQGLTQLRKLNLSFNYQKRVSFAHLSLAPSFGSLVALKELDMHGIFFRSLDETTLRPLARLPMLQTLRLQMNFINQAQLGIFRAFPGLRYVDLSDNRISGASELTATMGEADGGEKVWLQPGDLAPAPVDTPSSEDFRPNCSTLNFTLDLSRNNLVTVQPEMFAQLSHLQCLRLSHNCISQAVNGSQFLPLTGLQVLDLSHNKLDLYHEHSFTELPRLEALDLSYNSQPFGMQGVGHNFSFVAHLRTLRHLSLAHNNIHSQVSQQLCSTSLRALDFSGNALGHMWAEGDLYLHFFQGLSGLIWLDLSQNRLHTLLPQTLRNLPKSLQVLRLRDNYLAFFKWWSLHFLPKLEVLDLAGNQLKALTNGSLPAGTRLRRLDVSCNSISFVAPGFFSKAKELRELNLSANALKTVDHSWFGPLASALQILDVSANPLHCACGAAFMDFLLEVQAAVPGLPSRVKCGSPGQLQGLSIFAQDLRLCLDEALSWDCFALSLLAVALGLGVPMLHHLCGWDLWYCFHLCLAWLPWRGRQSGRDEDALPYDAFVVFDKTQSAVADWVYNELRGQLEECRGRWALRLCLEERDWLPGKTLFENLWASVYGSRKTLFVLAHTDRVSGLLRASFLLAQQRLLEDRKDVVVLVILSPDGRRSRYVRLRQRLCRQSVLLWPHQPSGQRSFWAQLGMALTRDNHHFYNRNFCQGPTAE
Description: (§1) HEK-Blue™-cells (Invivogen) overexpressing human TLR7, TLR8 or TLR9 receptors were used for screening inhibitors of these receptors using an inducible SEAP (secreted embryonic alkaline phosphatase) reporter gene under the control of the IFN-β minimal promoter fused to five NF-κB and AP-1-binding sites. Briefly, cells are seeded into Greiner 384 well plates (15000 cells per well for TLR7, 20,000 for TLR8 and 25,000 for TLR9) and then treated with test compounds in DMSO to yield a final dose response concentration range of 0.05 nM - 50 µM. After a 30 minute compound pre-treatment at room temperature, the cells are then stimulated with a TLR7 ligand (gardiquimod at a final concentration of 7.5 µM), TLR8 ligand (R848 at a final concentration of 15.9 µM) or TLR9 ligand (ODN2006 at a final concentration of 5 nM) to activate NF-κB and AP-1 which induce the production of SEAP. After a 22 h incubation at 37°C, 5% CO2, SEAP levels are determined with the addition of HEK-Blue™ Detection reagent (Invivogen), a cell culture medium that allows for detection of SEAP, according to manufacturer's specifications. The percent inhibition is determined as the % reduction in the HEK-Blue signal present in wells treated with agonist plus DMSO alone compared to wells treated with a known inhibitor.

human TLR7 = biological target: T2, human TLR7 (Homo sapiens, UniProt Q9NYK1); assay: TLR7 inhibition reporter assay (HEK-Blue SEAP); details: HEK-Blue cells overexpressing human TLR7, stimulated with gardiquimod 7.5 µM, 22 h incubation
T2 construct: host or cells: HEK-Blue cells
T2 sequence (Q9NYK1 27-1049): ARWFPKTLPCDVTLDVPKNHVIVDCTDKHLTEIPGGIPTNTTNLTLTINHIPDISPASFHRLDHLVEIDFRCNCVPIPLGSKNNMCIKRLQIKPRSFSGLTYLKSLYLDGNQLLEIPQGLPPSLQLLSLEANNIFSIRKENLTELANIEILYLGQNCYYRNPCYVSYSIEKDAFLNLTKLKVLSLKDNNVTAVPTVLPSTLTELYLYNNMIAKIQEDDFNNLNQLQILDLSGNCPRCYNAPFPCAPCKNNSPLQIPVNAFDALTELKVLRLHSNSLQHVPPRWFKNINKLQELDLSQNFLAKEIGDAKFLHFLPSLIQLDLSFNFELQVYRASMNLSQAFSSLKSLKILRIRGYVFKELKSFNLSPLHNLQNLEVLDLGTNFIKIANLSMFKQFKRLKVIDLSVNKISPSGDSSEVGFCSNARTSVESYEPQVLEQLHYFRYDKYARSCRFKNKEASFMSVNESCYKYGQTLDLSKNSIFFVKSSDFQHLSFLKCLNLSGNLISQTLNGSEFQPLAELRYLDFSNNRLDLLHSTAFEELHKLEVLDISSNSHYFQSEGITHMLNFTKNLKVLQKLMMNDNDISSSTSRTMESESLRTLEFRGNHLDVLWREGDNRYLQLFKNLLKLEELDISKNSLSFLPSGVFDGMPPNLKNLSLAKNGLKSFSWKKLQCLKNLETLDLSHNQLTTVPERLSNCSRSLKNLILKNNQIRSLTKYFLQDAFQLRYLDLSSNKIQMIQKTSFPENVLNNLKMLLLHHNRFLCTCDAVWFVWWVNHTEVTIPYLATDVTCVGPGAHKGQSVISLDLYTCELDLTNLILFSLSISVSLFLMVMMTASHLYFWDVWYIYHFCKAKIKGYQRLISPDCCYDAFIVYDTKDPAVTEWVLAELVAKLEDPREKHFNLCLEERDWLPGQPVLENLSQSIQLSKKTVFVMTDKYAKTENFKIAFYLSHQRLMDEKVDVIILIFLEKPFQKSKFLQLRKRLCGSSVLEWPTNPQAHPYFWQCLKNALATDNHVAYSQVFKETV
Description: as §1

human TLR8 = biological target: T3, human TLR8 (Homo sapiens, UniProt Q9NR97); assay: TLR8 inhibition reporter assay (HEK-Blue SEAP); details: HEK-Blue cells overexpressing human TLR8, stimulated with R848 15.9 µM, 22 h incubation
T3 construct: host or cells: HEK-Blue cells
T3 sequence (Q9NR97 27-1041): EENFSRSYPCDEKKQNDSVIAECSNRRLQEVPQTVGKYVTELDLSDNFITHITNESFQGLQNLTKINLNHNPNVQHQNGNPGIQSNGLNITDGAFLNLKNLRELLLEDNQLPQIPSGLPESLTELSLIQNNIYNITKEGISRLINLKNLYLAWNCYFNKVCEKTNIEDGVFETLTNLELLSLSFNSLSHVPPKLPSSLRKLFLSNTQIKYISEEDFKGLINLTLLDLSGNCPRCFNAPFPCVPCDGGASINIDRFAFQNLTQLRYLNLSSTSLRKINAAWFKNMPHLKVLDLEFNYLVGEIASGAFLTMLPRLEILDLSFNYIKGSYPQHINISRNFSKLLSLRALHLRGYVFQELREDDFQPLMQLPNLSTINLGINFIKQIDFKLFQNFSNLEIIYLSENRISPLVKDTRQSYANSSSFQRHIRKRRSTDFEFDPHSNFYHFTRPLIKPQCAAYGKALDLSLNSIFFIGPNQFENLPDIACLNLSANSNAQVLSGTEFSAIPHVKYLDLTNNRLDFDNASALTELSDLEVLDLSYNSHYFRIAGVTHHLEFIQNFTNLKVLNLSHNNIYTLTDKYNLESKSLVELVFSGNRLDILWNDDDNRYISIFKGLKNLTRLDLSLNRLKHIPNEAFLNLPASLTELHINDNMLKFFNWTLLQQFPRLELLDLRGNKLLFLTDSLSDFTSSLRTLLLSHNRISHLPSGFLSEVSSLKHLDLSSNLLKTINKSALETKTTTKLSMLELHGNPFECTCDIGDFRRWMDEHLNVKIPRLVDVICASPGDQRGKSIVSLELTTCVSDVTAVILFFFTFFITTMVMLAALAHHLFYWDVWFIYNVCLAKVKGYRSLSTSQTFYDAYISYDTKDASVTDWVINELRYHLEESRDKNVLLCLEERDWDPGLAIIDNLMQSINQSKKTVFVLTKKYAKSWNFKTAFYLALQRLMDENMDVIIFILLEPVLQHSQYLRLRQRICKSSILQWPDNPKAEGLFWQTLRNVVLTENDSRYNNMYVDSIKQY
Description: as §1

Row | SMILES | IC50 (human TLR9) [µM] | IC50 (human TLR7) [µM] | IC50 (human TLR8) [µM]
1 | Cc1noc(C)c1-c1ccc2c(c1)[nH]c1ccc(C3CCNCC3)cc12 [Example 1, 3,5-dimethyl-4-(6-(piperidin-4-yl)-9H-carbazol-2-yl)isoxazole] | 1.06 | 0.651 | 0.209
2 | Cc1cc(-c2ccc3c(c2)[nH]c2ccc(C4CCNCC4)cc23)cc(C)n1 [Example 2, 2-(2,6-Dimethylpyridin-4-yl)-6-(piperidin-4-yl)-9H-carbazole] | 0.053 | 0.022 | 0.103
3 | Cc1cc(-c2ccc3c(c2)[nH]c2ccc(C4CCNCC4)cc23)cn2ncnc12 [Example 3, 2-(8-methyl-[1,2,4]triazolo[1,5-a]pyridin-6-yl)-6-(piperidin-4-yl)-9H-carbazole] | 0.668 | 0.109 | 0.358
4 | c1cncc(-c2ccc3c(c2)[nH]c2ccc(C4CCNCC4)cc23)c1 [Example 4, 6-(piperidin-4-yl)-2-(pyridin-3-yl)-9H-carbazole] | 0.541 | 1.47 | 1.8
5 | Cc1c(-c2ccc3c(c2)[nH]c2ccc(C4CCNCC4)cc23)cn(C)c(=O)c1C [Example 5, 1,3,4-trimethyl-5-(6-(piperidin-4-yl)-9H-carbazol-2-yl)pyridin-2(1H)-one] | 0.182 | 0.016 | 0.029
6 | CN1CCC(c2ccc3c(c2)[nH]c2ccc(C4CCNCC4)cc23)CC1=O (centres unmarked) [Example 6, 1-methyl-4-(6-(piperidin-4-yl)-9H-carbazol-2-yl)piperidin-2-one] | 1.05 | > 3.13 | > 3.13
7 | CC(=O)Nc1ccc2c(c1)[nH]c1ccc(C3CCNCC3)cc12 [Example 7, N-(6-(piperidin-4-yl)-9H-carbazol-2-yl)acetamide] | 1.06 | > 3.13 | > 3.13
8 | Cn1cc(-c2ccc3c(c2)[nH]c2ccc(C4CCNCC4)cc23)cn1 [Example 8, 2-(1-methyl-1H-pyrazol-4-yl)-6-(piperidin-4-yl)-9H-carbazole] | 0.648 | 1.38 | 0.861
9 | c1cc(-c2ccc3c(c2)[nH]c2ccc(C4CCNCC4)cc23)ccn1 [Example 9, 6-(Piperidin-4-yl)-2-(pyridin-4-yl)-9H-carbazole] | 0.302 | 0.383 | 0.061
10 | Cc1c(-c2cc(C)c3c(c2)[nH]c2ccc(C4CCNCC4)cc23)cn(C)c(=O)c1C [Example 10, 1,3,4-trimethyl-5-(4-methyl-6-(piperidin-4-yl)-9H-carbazol-2-yl)pyridin-2(1H)-one] | 0.35 | 0.0022 | 0.0024
11 | Cc1cc(-c2cc(C)c3c(c2)[nH]c2ccc(C4CCNCC4)cc23)cc(C)n1 [Example 11] | 0.04 | 0.0024 | 0.021
12 | COc1cc(-c2cc(C)c3c(c2)[nH]c2ccc(C4CCNCC4)cc23)cn2ncnc12 [Example 12] | 0.153 | 0.0014 | 0.0068
13 | Cc1cc(-c2cc(C)c3ncnn3c2)cc2[nH]c3ccc(C4CCNCC4)cc3c12 [Example 13] | 0.349 | 0.0007 | 0.0068
14 | Cc1cc2c(cc1-c1cc(C)c3ncnn3c1)[nH]c1ccc(C3CCNCC3)cc12 [Example 14, 3-methyl-2-(8-methyl-[1,2,4]triazolo[1,5-a]pyridin-6-yl)-6-(piperidin-4-yl)-9H-carbazole] | 0.318 | 0.0012 | 0.0014
15 | COc1cc(-c2cc3[nH]c4ccc(C5CCNCC5)cc4c3c(C)c2C)cn2ncnc12 [Example 15, 2-(8-Methoxy-[1,2,4]triazolo[1,5-a]pyridin-6-yl)-3,4-dimethyl-6-(piperidin-4-yl)-9H-carbazole] | 0.095 | 0.0008 | 0.0008
16 | Cc1cc2c(cc1-c1cn(C)c(=O)c(C)c1C)[nH]c1ccc(C3CCNCC3)cc12 [Example 16] | 0.158 | 0.035 | 0.0055
17 | COc1cc(-c2cc3[nH]c4ccc(C5CCNCC5)cc4c3cc2C)cn2ncnc12 [Example 17] | 0.108 | 0.0019 | 0.0014
18 | COc1cc(-c2cc3[nH]c4ccc(C5CN(C6CCOCC6)C5)cc4c3c(C)c2C)cn2ncnc12 [Example 37] | 1.05 |  | 0.0013
